Experiments:
B. cereus T spores = assay type: cell-based, Bacillus cereus T
spores of Bacillus = settings: cited from earlier work

For Sublancin, the “halo (inhibition of spore germination/outgrowth)” value (B. cereus T spores) is listed as “clear halo” and the “inhibition of outgrowth of spores” value (spores of Bacillus) is listed as “highly active”.
